Measured values from patent publication US20230128969A1, “POLYURETHANE FOAM COMPOSITIONS WITH ANTIMICROBIAL PROPERTIES” (SANITIZED AG, priority 2020, published 2023).
Several values for one entry are separate records, joined by “and”; a condition that tells them apart may be missing. Equal values may be shown once. Read-outs that look alike come from different tables or passages of the source.

Key:
[1] = system: Aspergillus niger-ATCC 9642, Penicillium funiculosum-ATCC 11797, Chaetomium globosum-ATCC 6205, Trichoderma virens-ATCC 9645, Aureobasidium pullulans-ATCC …; assay: ASTM G21 strengthened (fungal growth on specimen, 28 days); type: cell-based, mold fungi (composite spore suspension); details: for ASTM G21: 0.5 pbw (B) with 0.25 pbw (C) C8-C18-alkyldimethylbenzyl ammonium chloride; for ASTM G21 strengthened rating: rigid foam A4
[2] = system: Aspergillus niger-ATCC 6275, Penicillium funiculosum-ATCC 36839, Chaetomium globosum-ATCC 6205, Trichoderma virens ATCC 9645, Paecilomyces varioti-ATCC 18502; assay: EN ISO 846 A test method (PUD coatings, 28 days); type: cell-based, fungi (composite spore suspension); parameters: key: 0: No fungal growth, excellent resistance; 1: fungi visible with the microscope, sufficient resistance; 2-5: fungi visible to the naked eye, insufficient resistance; details: polyurethane coating A5
[3] = system: Penicillium funiculosum-ATCC 36839; assay: Agar diffusion test SAN BIO 12/94; type: cell-based; details: polyurethane coating A5
[4] = system: Escherichia coli ATCC 11229; assay: JIS L 1902 test method (memory foam, 18 hours); type: cell-based; details: memory foam A2
[5] = system: Escherichia coli ATCC 8739; assay: JIS Z 2801 test method (PUD coatings, 24 hours); type: cell-based; details: polyurethane coating A5
[6] = memory foam A1, 0.2 pbw (B) with 0.5 pbw (C) dimethyltetradecyl(3-(trimethoxysilyl)propyl)ammonium chloride, (E) Diglyme 0.8 pbw
[7] = memory foam A2, 0.5 pbw (B), 0 pbw (C)
[8] = memory foam A2, 0.125 pbw (C), 0 pbw (B)
[9] = memory foam A2, 0.25 pbw (C), 0 pbw (B)
[10] = memory foam A2, 0.5 pbw (C), 0 pbw (B)
[11] = 0.5 pbw (C) with 0.25 pbw (B) tetrasodium EDTA salt
[12] = 0.5 pbw (C) with 0.5 pbw (B) tetrasodium EDTA salt
[13] = memory foam A2, 1 pbw (C), 0 pbw (B)
[14] = memory foam A2, 2 pbw (C), 0 pbw (B)

O=C(O)CC(O)(CC(=O)O)C(=O)O [Citric acid]
G21 (ASTM G21 strengthened rating) [1, 6]: 4 (at least 60% of the surface is covered with mold fungi)

O=C(O)CN(CCO)CCN(CC(=O)O)CC(=O)O [N-(2-Hydroxyethyl)-ethylenediamine-N,N′,N′-triacetic acid]
ASTM G21 ([1]; memory foam A2): 2 (10 to 30% of the surface is covered with mold fungi) | G21 (ASTM G21 strengthened rating) [1, 7]: 3 (30 to 60% of the surface is covered with mold fungi)

O=C(O)CN(CC(=O)O)CC(=O)O [Nitrilotriacetic acid]
G21 (ASTM G21 strengthened rating) [1, 6]: 4 (at least 60% of the surface is covered with mold fungi)

CCCCCCCCCCC(=O)O [Undecanoic acid]
G21 (ASTM G21 strengthened rating) ([1]; memory foam A1, 0.5 pbw (B) with 0.5 pbw (C) dimethyltetradecyl(3-(trimethoxysilyl)propyl)ammonium chloride, (E) Arcol Polyol 1108 0.5 pbw): 4 (at least 60% of the surface is covered with mold fungi)

CCCCCCCCCC[N+](C)(C)CCCCCCCCCC.[Cl-] [didecyldimethyl ammonium chloride]
G21 (ASTM G21 strengthened rating) [1]: 0

CCCCCCCCCCCCCCCCCC[N+](C)(C)CCC[Si](OC)(OC)OC.[Cl-] [dimethyloctadecyl(3-(trimethoxysilyl)propyl)ammonium chloride]
G21 (ASTM G21 strengthened rating) [1, 8]: 4 (at least 60% of the surface is covered with mold fungi) | G21 (ASTM G21 strengthened rating) [1, 9]: 3 (30 to 60% of the surface is covered with mold fungi)

CCCCCCCCCCCCCC[N+](C)(C)CCC[Si](OC)(OC)OC.[Cl-] [dimethyltetradecyl(3-(trimethoxysilyl)propyl)ammonium chloride]
G21 (ASTM G21 strengthened rating) ([1]; memory foam A1, 0.5 pbw (C), no (B), (E) Arcol Polyol 1108 1 pbw): 4 (at least 60% of the surface is covered with mold fungi) | G21 (ASTM G21 strengthened rating) ([1]; memory foam A1, 0.5 pbw (C), no (B), (E) Diglyme 1 pbw): 4 (at least 60% of the surface is covered with mold fungi) | G21 (ASTM G21 strengthened rating) ([1]; memory foam A1, 0.5 pbw (C), no (B), (E) Triacetin 1 pbw): 4 (at least 60% of the surface is covered with mold fungi) | G21 (ASTM G21 strengthened rating) ([1]; memory foam A1, 0.5 pbw (C), no (B), no (E)): 3 (30 to 60% of the surface is covered with mold fungi) | G21 (ASTM G21 strengthened rating) [1, 8]: 4 (at least 60% of the surface is covered with mold fungi) | G21 (ASTM G21 strengthened rating) [1, 9]: 3 (30 to 60% of the surface is covered with mold fungi) | G21 (ASTM G21 strengthened rating) [1, 10]: 0 | EN ISO 846 A rating [2, 11]: 3 | EN ISO 846 A rating [2, 12]: 1 | EN ISO 846 A rating ([2]; 0.5 pbw (C) with 1 pbw (B) tetrasodium EDTA salt): 0 | EN ISO 846 A rating ([2]; 0.5 pbw (C), 0 pbw (B)): 5 | SAN BIO 12-94 fungal growth ([3]; 0.5 pbw (C), 0 pbw (B)): Full (f) (insufficient protection, sample is covered with fungi) | logarithmic reduction of bacterial growth (log R), JIS L 1902 ([4]; 1 pbw (C), 0 pbw (B)): 2.7 log R | bacterial growth (in words) ([4]; combination of (C) with (B) disodium EDTA dihydrate): absence of bacterial growth | Bacterial Activity R, logarithmic reduction (log R activity), JIS Z 2801 ([5]; 0.125 pbw (C) with 0.25 pbw (B) tetrasodium EDTA salt): 2.80 log R | Bacterial Activity R, logarithmic reduction (log R activity), JIS Z 2801 ([5]; 0.125 pbw (C) with 0.5 pbw (B) tetrasodium EDTA salt): >5.10 log R | Bacterial Activity R, logarithmic reduction (log R activity), JIS Z 2801 ([5]; 0.125 pbw (C), 0 pbw (B)): 0.10 log R | Bacterial Activity R, logarithmic reduction (log R activity), JIS Z 2801 [5, 11]: 2.90 log R | Bacterial Activity R, logarithmic reduction (log R activity), JIS Z 2801 [5, 12]: >5.10 log R | Bacterial Activity R, logarithmic reduction (log R activity), JIS Z 2801 ([5]; 0.5 pbw (C), 0 pbw (B)): 0.50 log R

O.O.O=C([O-])CN(CCN(CC(=O)O)CC(=O)O)CC(=O)[O-].[Na+].[Na+] [disodium EDTA dihydrate, Disodium EDTA dihydrate]
G21 (ASTM G21 strengthened rating) [1, 6]: 0 | antimicrobial efficiency / protection (in words) ([1]; memory foam A1, (B) combined with (C) dimethyltetradecyl(3-(trimethoxysilyl)propyl)ammonium chloride, ASTM G21 strengthened): very good antimicrobial efficiency | G21 (ASTM G21 strengthened rating) ([1]; memory foam A2, 0.25 pbw (B), 0 pbw (C)): 3 (30 to 60% of the surface is covered with mold fungi) | ASTM G21 ([1]; memory foam A2): 0 | G21 (ASTM G21 strengthened rating) [1, 7]: 3 (30 to 60% of the surface is covered with mold fungi) | G21 (ASTM G21 strengthened rating) ([1]; memory foam A2, 1 pbw (B), 0 pbw (C)): 3 (30 to 60% of the surface is covered with mold fungi) | ASTM G21 strengthened rating ([1]; 0.5 pbw (B), 0 pbw (C)): 4 (at least 60% of the surface is covered with mold fungi) | SAN BIO 12-94 fungal growth ([3]; 0.25 pbw (B), 0 pbw (C)): Full (f) (insufficient protection, sample is covered with fungi) | SAN BIO 12-94 fungal growth ([3]; 0.5 pbw (B), 0 pbw (C)): Full (f) (insufficient protection, sample is covered with fungi) | SAN BIO 12-94 fungal growth ([3]; 1 pbw (B), 0 pbw (C)): Full (f) (insufficient protection, sample is covered with fungi) | logarithmic reduction of bacterial growth (log R), JIS L 1902 ([4]; 0.25 pbw (B), 0 pbw (C)): 3.1 log R

CCCCCCCCCCCCN(CCCN)CCCN [laurylamine dipropylenediamine]
G21 (ASTM G21 strengthened rating) [1, 10]: 4 (at least 60% of the surface is covered with mold fungi) | G21 (ASTM G21 strengthened rating) [1, 13]: 4 (at least 60% of the surface is covered with mold fungi)

CCCCCCCCCCCCCC[N+](C)(C)C.[Cl-] [myristyltrimethylammonium chloride]
G21 (ASTM G21 strengthened rating) [1, 10]: 2 (10 to 30% of the surface is covered with mold fungi) | G21 (ASTM G21 strengthened rating) [1, 13]: 0 | G21 (ASTM G21 strengthened rating) [1, 14]: 0

O=C([O-])CN(CCN(CC(=O)[O-])CC(=O)[O-])CC(=O)[O-].[Na+].[Na+].[Na+].[Na+] [tetrasodium EDTA salt, EDTA, tetrasodium]
G21 (ASTM G21 strengthened rating) [1]: 0 | antimicrobial efficiency / protection (in words) [1]: very good antimicrobial efficiency | EN ISO 846 A rating ([2]; 0.25 pbw (B), 0 pbw (C)): 5 | EN ISO 846 A rating ([2]; 0.5 pbw (B), 0 pbw (C)): 5 | EN ISO 846 A rating ([2]; 1 pbw (B), 0 pbw (C)): 5 | Bacterial Activity R, logarithmic reduction (log R activity), JIS Z 2801 ([5]; 0.25 pbw (B), 0 pbw (C)): 0.90 log R | Bacterial Activity R, logarithmic reduction (log R activity), JIS Z 2801 ([5]; 0.5 pbw (B), 0 pbw (C)): 3.20 log R

C8-C18-alkyldimethylbenzyl ammonium chloride
G21 (ASTM G21 strengthened rating) [1, 9]: 3 (30 to 60% of the surface is covered with mold fungi) and 2 (10 to 30% of the surface is covered with mold fungi) | G21 (ASTM G21 strengthened rating) [1, 10]: 4 (at least 60% of the surface is covered with mold fungi) | G21 (ASTM G21 strengthened rating) [1, 13]: 4 (at least 60% of the surface is covered with mold fungi) | G21 (ASTM G21 strengthened rating) [1, 14]: 0 | ASTM G21 strengthened rating ([1]; 0.25 pbw (C), 0 pbw (B)): 3 (30 to 60% of the surface is covered with mold fungi)
